Target: T1, KRAS G12C 1-169, his-tagged protein, GDP-loaded (Homo sapiens, UniProt P01116, G12C)
T1 construct: KRAS G12C 1-169, his-tagged protein, GDP-loaded; His tag
Assay: Biochemical assay: covalent modification of KRAS G12C, analysed by mass spectrometry (RapidFire/TOF or Q-Exactive); further: time not given here
Format: binding
Conditions: Modification activity, modification percentage from MS peak intensities
How it was run: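 Covalent adduct formation was quantified by intact-protein mass spectrometry, either TOF or C4 LC-Q Exactive Plus, as percent modified versus unmodified protein after deconvolution. Compounds at 8 or 32 μM final were incubated with 0.5 or 2 μM GDP-bound KRAS G12C(1-169)-His in Hepes/NaCl/MgCl2 buffer before acid quench.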

SMILES	Binding %
C=CC(=O)N1CC2(CCN(c3nc(OC[C@@H]4CCCN4C)nc(-c4cc(-c5cn[nH]c5)ccc4F)c3C#N)C2)C1 [Compound I-115, (S)-4-(2-acryloyl-2,6-diazaspiro[3.4]octan-6-yl)-6-(2-fluoro-5-(1H-pyrazol-4-yl)phenyl)-2-((1-methylpyrrolidin-2-yl)methoxy)pyrimidine-5-carbonitrile]	+ (+ indicates binding activity greater than 0% and up to 50%)
C=CC(=O)N1CC2(CCN(c3nc(OC[C@H]4CCN(C)C4)nc(-c4c(C)ccc5[nH]ncc45)c3C#N)C2)C1 [Compound I-116, 4-(2-acryloyl-2,6-diazaspiro[3.4]octan-6-yl)-6-(5-methyl-1H-indazol-4-yl)-2-(((S)-1-methylpyrrolidin-3-yl)methoxy)pyrimidine-5-carbonitrile]	++ (++ indicates binding activity from 50 to 85%)
C=CC(=O)N1CC2(CCN(c3nc(OC[C@@H]4COCCN4C)nc(-c4c(C)ccc5[nH]ncc45)c3C#N)C2)C1 [Compound I-117, 4-(2-acryloyl-2,6-diazaspiro[3.4]octan-6-yl)-6-(5-methyl-1H-indazol-4-yl)-2-(((S)-4-methylmorpholin-3-yl)methoxy)pyrimidine-5-carbonitrile]	++ (++ indicates binding activity from 50 to 85%)
C=CC(=O)N1CC2(CCN(c3nc(N4CCOCC4)nc(-c4c(C)ccc5[nH]ncc45)c3F)C2)C1 [Compound I-118, 1-(6-(5-fluoro-6-(5-methyl-1H-indazol-4-yl)-2-morpholinopyrimidin-4-yl)-2,6-diazaspiro[3.4]octan-2-yl)prop-2-en-1-one]	++ (++ indicates binding activity from 50 to 85%)
C=CC(=O)N1CC2(CCN(c3nc(N4CCOCC4)nc(-c4c(F)ccc5cnn(C)c45)c3C#N)C2)C1 [Compound I-119, 4-(2-acryloyl-2,6-diazaspiro[3.4]octan-6-yl)-6-(6-fluoro-1-methyl-1H-indazol-7-yl)-2-morpholinopyrimidine-5-carbontrile]	++ (++ indicates binding activity from 50 to 85%)
C=CC(=O)N1CC2(CCN(c3nc(N4CCOCC4)nc(-c4c(F)ccc5cnn(C6CC6)c45)c3C#N)C2)C1 [Compound I-120, 4-(2-acryloyl-2,6-diazaspiro[3.4]octan-6-yl)-6-(1-cyclopropyl-6-fluoro-1H-indazol-7-yl)-2-morpholinopyrimidine-5-carbonitrile]	+++ (+++ indicates binding activity greater than 85%)
C=CC(=O)N1CC2(CCN(c3nc(N4CCOCC4)nc(-c4c(C)ccc5[nH]ncc45)c3OC)C2)C1 [Compound I-121, 1-(6-(5-methoxy-6-(5-methyl-1H-indazol-4-yl)-2-morpholinopyrimidin-4-yl)-2,6-diazaspiro[3.4]octan-2-yl)prop-2-en-1-one]	++ (++ indicates binding activity from 50 to 85%)
C=CC(=O)N1CC2(CCN(c3nc(N4CCCC(O)C4)nc(-c4c(C)ccc5[nH]ncc45)c3C#N)C2)C1 (stereo not shown) [Compound I-122, 4-(2-acryloyl-2,6-diazaspiro[3.4]octan-6-yl)-2-(3-hydroxypiperidin-1-yl)-6-(5-methyl-1H-indazol-4-yl)pyrimidine-5-carbonitrile]	++ (++ indicates binding activity from 50 to 85%)
C=CC(=O)N1CC2(CCN(c3nc(OCc4ccccn4)nc(-c4c(F)ccc5cnn(C)c45)c3C#N)C2)C1 [Compound I-123, 4-(2-acryloyl-2,6-diazaspiro[3.4]octan-6-yl)-6-(6-fluoro-1-methyl-1H-indazol-7-yl)-2-(pyridin-2-ylmethoxy)pyrimidine-5-carbonitrile]	+ (+ indicates binding activity greater than 0% and up to 50%)
C=CC(=O)N1CC2(CCN(c3nc(OC[C@@H]4CCCN4C)nc(-c4c(F)ccc5cnn(C6CC6)c45)c3C#N)C2)C1 [Compound I-124, 4-(2-acryloyl-2,6-diazaspiro[3.4]octan-6-yl)-6-(1-cyclopropyl-6-fluoro-1H-indazol-7-yl)-2-(((S)-1-methylpyrrolidin-2-yl)methoxy)pyrimidine-5-carbonitrile]	+ (+ indicates binding activity greater than 0% and up to 50%)
C=CC(=O)N1CC2(CCN(c3nc(OCC(=O)N4CCCC4)nc(-c4c(C)ccc5[nH]ncc45)c3C#N)C2)C1 [Compound I-127, 4-(2-acryloyl-2,6-diazaspiro[3.4]octan-6-yl)-6-(5-methyl-1H-indazol-4-yl)-2-(2-oxo-2-(pyrrolidin-1-yl)ethoxy)pyrimidine-5-carbonitrile]	+ (+ indicates binding activity greater than 0% and up to 50%)
C=CC(=O)N1CC2(CC(=O)N(c3nc(N4CCOCC4)nc(-c4c(C)ccc5[nH]ncc45)c3C#N)C2)C1 [Compound I-130, 4-(2-acryloyl-7-oxo-2,6-diazaspiro[3.4]octan-6-yl)-6-(5-methyl-1H-indazol-4-yl)-2-morpholinopyrimidine-5-carbonitrile]	++ (++ indicates binding activity from 50 to 85%)
C=CC(=O)N1CC2(CCN(c3nc(-c4c(C)ccc5[nH]ncc45)ncc3C#N)C2)C1 [Compound I-141, 4-(2-acryloyl-2,6-diazaspiro[3.4]octan-6-yl)-2-(5-methyl-1H-indazol-4-yl)pyrimidine-5-carbonitrile]	+ (+ indicates binding activity greater than 0% and up to 50%)
C=CC(=O)N1CC2(CCN(c3nc(-c4c(C)ccc5[nH]ncc45)c(C#N)c(N4CCOCC4)n3)C2)C1 [Compound I-142, 2-(2-acryloyl-2,6-diazaspiro[3.4]octan-6-yl)-4-(5-methyl-1H-indazol-4-yl)-6-morpholinopyrimidine-5-carbonitrile]	+ (+ indicates binding activity greater than 0% and up to 50%)
C=CC(=O)N1CC2(CCN(c3nc(-c4c(C)ccc5[nH]ncc45)cc(N4CC(N(C)C)C4)n3)C2)C1 [Compound I-143, 1-(6-(4-(3-(dimethylamino)azeti-din-1-yl)-6-(5-methyl-1H-indazol-4-yl)pyrimidin-2-yl)-2,6-diazaspiro[3.4]octan-2-yl)prop-2-en-1-one]	+ (+ indicates binding activity greater than 0% and up to 50%)
C=CC(=O)N1CC2(CCN(c3nc(-c4c(C)ccc5[nH]ncc45)cc(N4CCOCC4)n3)C2)C1 [Compound I-144, 1-(6-(4-(5-methyl-1H-indazol-4-yl)-6-morpholinopyrimidin-2-yl)-2,6-diazaspiro[3.4]octan-2-yl)prop-2-en-1-one]	+ (+ indicates binding activity greater than 0% and up to 50%)
C=CC(=O)N1CC2(CCN(c3ncc(C#N)c(-c4c(C)ccc5[nH]ncc45)n3)C2)C1 [Compound I-145, 2-(2-acryloyl-2,6-diazaspiro[3.4]octan-6-yl)-4-(5-methyl-1H-indazol-4-yl)pyrimidine-5-carbonitrile]	+ (+ indicates binding activity greater than 0% and up to 50%)
C=CC(=O)N1CC2(CCN(c3nc(OCCCN(C)C)cc(-c4c(C)ccc5[nH]ncc45)n3)C2)C1 [Compound I-146, 1-(6-(4-(3-(dimethylamino)pro-poxy)-6-(5-methyl-1H-indazol-4-yl)pyrimidin-2-yl)-2,6-diazaspiro[3.4]octan-2-yl)prop-2-en-1-one]	+ (+ indicates binding activity greater than 0% and up to 50%)
C=CC(=O)N1CC2(CCN(c3nc(-c4c(C)ccc5[nH]ncc45)c(C#N)c(N4CC(N(C)C)C4)n3)C2)C1 [Compound I-147, 2-(2-acryloyl-2,6-diazaspiro[3.4]octan-6-yl)-4-(3-(dimethylamino)azeti-din-1-yl)-6-(5-methyl-1H-indazol-4-yl)pyrimidine-5-carbonitrile]	+ (+ indicates binding activity greater than 0% and up to 50%)
C=CC(=O)N1CC2(CCN(c3nc(OC[C@@H]4CCCN4C)cc(-c4c(C)ccc5[nH]ncc45)n3)C2)C1 [Compound I-148, (S)-1-(6-(4-(5-methyl-1H-indazol-4-yl)-6-((1-methylpyrrolidin-2-yl)methoxy)pyrimidin-2-yl)-2,6-diazaspiro[3.4]octan-2-yl)prop-2-en-1-one]	+ (+ indicates binding activity greater than 0% and up to 50%)
C=CC(=O)N1CC2(CCN(c3nc(OCc4cnc(OC)nc4)nc(-c4c(C)ccc5[nH]ncc45)c3C#N)C2)C1 [Compound I-149, 4-(2-acryloyl-2,6-diazaspiro[3.4]octan-6-yl)-2-((2-methoxypyrimidin-5-yl)methoxy)-6-(5-methyl-1H-indazol-4-yl)pyrimidine-5-carbonitrile]	+++ (+++ indicates binding activity greater than 85%)
C=CC(=O)N1CC2(CCN(c3nc(OCc4cccnc4)nc(-c4c(C)ccc5[nH]ncc45)c3C#N)C2)C1 [Compound I-150, 4-(2-acryloyl-2,6-diazaspiro[3.4]octan-6-yl)-6-(5-methyl-1H-indazol-4-yl)-2-(pyridin-3-ylmethoxy)pyrimidine-5-carbonitrile]	++ (++ indicates binding activity from 50 to 85%)
C=CC(=O)N1CC2(CCN(c3nc(OCc4cccc(OC)c4)nc(-c4c(C)ccc5[nH]ncc45)c3C#N)C2)C1 [Compound I-151, 4-(2-acryloyl-2,6-diazaspiro[3.4]octan-6-yl)-2-((3-methoxybenzyl)oxy)-6-(5-methyl-1H-indazol-4-yl)pyrimidine-5-carbonitrile]	++ (++ indicates binding activity from 50 to 85%)
C=CC(=O)N1CC2(CCN(c3nc(OCc4cc(F)cc(F)c4)nc(-c4c(C)ccc5[nH]ncc45)c3C#N)C2)C1 [Compound I-152]	++ (++ indicates binding activity from 50 to 85%)
C=CC(=O)N1CC2(CCN(c3nc(OCc4ccc(N5CCOCC5)cn4)nc(-c4c(C)ccc5[nH]ncc45)c3C#N)C2)C1 [Compound I-153, 4-(2-acryloyl-2,6-diazaspiro[3.4]octan-6-yl)-6-(5-methyl-1H-indazol-4-yl)-2-((5-morpholinopyridin-2-yl)methoxy)pyrimidine-5-carbonitrile]	++ (++ indicates binding activity from 50 to 85%)

Source: US12134620B2 (ARAXES PHARMA LLC, priority 2018, dated 2024)
